What follows are compounds tested on fibroblasts (assay: Antiproliferative assay (inhibition of cell proliferation, procedure of Pledger et al.)). Conditions: Fibroblast.
Type: cell-based
Description: The compounds of Formula I are active as inhibitors of cell proliferation as shown in Table 1 by the test procedure described in Pledger W.J., Stiles C.D., Antniades H.N., Scher C.D., (Proc. Natl. Acad. Sci (USA) (1977). In addition, various compounds of Formula I are also inhibitors of ADP induced platelet aggregation and are useful in the prevention or treatment of thrombotic diseases and related complications by, for example, inhibition or reversal of platelet aggregation, or platelet adhesion or blood coagulation. […]

Compared with `O=c1cc(CN2CCOCC2)oc(-c2ccc(OCc3ccccc3)cc2)c1` [Compound 12], `O=c1cc(-c2ccc(OCc3cccnc3)cc2)oc(N2CCOCC2)c1` [Compound 5, 2-(4-Morpholinyl)-6-(4-(3-pyridinylmethoxy)phenyl)-4H-pyran-4-one] is 3.7-fold lower in EC50: 41 µM for the first, 11.2 µM for the second. The second is the more potent here.

Going from `O=c1cc(-c2ccc(N3CCCCC3)cc2)oc(N2CCOCC2)c1` [Compound 24, 2-(4-Morpholinyl)-6-4-(1-piperidinyl)phenyl-4H-pyran-4-one] to `O=c1cc(-c2ccc(N3CCCC3)cc2)oc(N2CCOCC2)c1` [Compound 23, 2-(4-Morpholinyl)-6-4-(1-pyrrolidinyl)phenyl-4H-pyran-4-one], the EC50 falls from 0.48 µM to 0.25 µM (1.9-fold).

First: O=c1cc(-c2ccccc2OCc2ccccc2)oc(N2CCOCC2)c1 [Compound 9, 2-(4-Morpholinyl)-6-(2-(phenylmethoxy)phenyl)-4H-pyran-4-one]
Second: O=c1cc(-c2ccccc2O)oc(N2CCOCC2)c1 [Compound 10, 2-(2-Hydroxyphenyl)-6-(4-morpholinyl)-4H-pyran-4-one]
The EC50 of the first is 5.4-fold lower: 11.6 µM for the first, 62.2 µM for the second. The first is the more potent here.

Work on `O=c1cc(-c2ccc(OCc3ccc4ccccc4n3)cc2)oc(N2CCOCC2)c1` [Compound 8, 2-(4-Morpholinyl)-6-(4-(2-quinolinylmethoxy)phenyl)-4H-pyran-4-one] yielded an EC50 of 6.8 µM.

Same assay, conditions: percent inhibition at the maximum concentration tested

First: O=c1cc(-c2ccc(CO)cc2)oc(N2CCOCC2)c1 [Compound 17, 2-(4-(hydroxymethyl)phenyl)-6-(4-morpholinyl)-4H-pyran-4-one]
Second: O=c1cc(-c2ccc(CN3CCCC3)cc2)oc(N2CCOCC2)c1 [Compound 19, 2-(4-morpholinyl)-6-(4-(1-pyrrolidinylmethyl)phenyl)-4H-pyran-4-one]
The “Antiproliferative Assay Data Inhibition (%)” value of the first is higher: 20% for the first, 12% for the second.

Going from `O=c1cc(CN2CCCCC2)oc(-c2ccc(OCc3ccccc3)cc2)c1` [Compound 13] to `O=c1cc(CN2CCOCC2)oc(-c2ccc(OCc3ccccc3)cc2)c1` [Compound 12], the “Antiproliferative Assay Data Inhibition (%)” value rises from 20% to 36%.

Compared with `O=c1cc(-c2ccc(CN3CCCCC3CO)cc2)oc(N2CCOCC2)c1` (centres unmarked) [Compound 21, 2-(4-((2-(hydroxymethyl)-1-piperidinyl)methyl)phenyl)-6-(4-morpholinyl)-4H-pyran-4-one], `O=c1cc(-c2ccc(CN3CCCCC3)cc2)oc(N2CCOCC2)c1` [Compound 18, 2-(4-morpholinyl)-6-(4-(1-piperidinylmethyl)phenyl)-4H-pyran-4-one] is lower in “Antiproliferative Assay Data Inhibition (%)” value: 13% for the first, 8% for the second.

Going from `O=c1cc(-c2ccccc2OCc2ccccc2)oc(N2CCOCC2)c1` [Compound 9, 2-(4-Morpholinyl)-6-(2-(phenylmethoxy)phenyl)-4H-pyran-4-one] to `O=c1cc(-c2ccccc2O)oc(N2CCOCC2)c1` [Compound 10, 2-(2-Hydroxyphenyl)-6-(4-morpholinyl)-4H-pyran-4-one], the “Antiproliferative Assay Data Inhibition (%)” value falls from 88% to 34%.

First: O=c1cc(-c2ccc(OCc3cccnc3)cc2)oc(N2CCOCC2)c1 [Compound 5, 2-(4-Morpholinyl)-6-(4-(3-pyridinylmethoxy)phenyl)-4H-pyran-4-one]
Second: CN1CCN(Cc2ccc(-c3cc(=O)cc(N4CCOCC4)o3)cc2)CC1 [Compound 20, 2-(4-((4-methyl-1-piperazinyl)methyl)phenyl)-6-(4-morpholinyl)-4H-pyran-4-one]
The “Antiproliferative Assay Data Inhibition (%)” value of the first is higher: 77% for the first, 9% for the second.

What follows are compounds tested on ADP induced platelet aggregation (assay: Inhibition of ADP-induced platelet aggregation (procedure of Born and Cross)). Conditions: read-out: Inhibition of Platelet Aggregation 10 ug/ml.
Type: cell-based
Method: Most compounds of Formula I are active as inhibitors of platelet aggregation as shown in Table 1 by the test procedure described in Born, G.R., Cross M.J., J. Physiol., 168, p. 178 (1963).
Also, reported is the percent inhibition of platelet aggregation at 10ug/ml and 30 ug/ml concentrations.

Compared with `O=c1cc(-c2ccc(CO)cc2)oc(N2CCOCC2)c1` [Compound 17, 2-(4-(hydroxymethyl)phenyl)-6-(4-morpholinyl)-4H-pyran-4-one], `O=c1cc(-c2ccc(CN3CCCC3)cc2)oc(N2CCOCC2)c1` [Compound 19, 2-(4-morpholinyl)-6-(4-(1-pyrrolidinylmethyl)phenyl)-4H-pyran-4-one] is higher in inhibition at 10 µg/mL: 0% for the first, 5% for the second.

`O=c1cc(CN2CCCCC2)oc(-c2ccc(OCc3ccccc3)cc2)c1` [Compound 13] and `O=c1cc(CN2CCOCC2)oc(-c2ccc(OCc3ccccc3)cc2)c1` [Compound 12] are the same in inhibition at 10 µg/mL: 0% for the first, 0% for the second.

`O=c1cc(-c2ccc(CN3CCCCC3CO)cc2)oc(N2CCOCC2)c1` (centres unmarked) [Compound 21, 2-(4-((2-(hydroxymethyl)-1-piperidinyl)methyl)phenyl)-6-(4-morpholinyl)-4H-pyran-4-one] and `O=c1cc(-c2ccc(CN3CCCCC3)cc2)oc(N2CCOCC2)c1` [Compound 18, 2-(4-morpholinyl)-6-(4-(1-piperidinylmethyl)phenyl)-4H-pyran-4-one] are the same in inhibition at 10 µg/mL: 10% for the first, 10% for the second.

First: O=c1cc(-c2ccc(N3CCCCC3)cc2)oc(N2CCOCC2)c1 [Compound 24, 2-(4-Morpholinyl)-6-4-(1-piperidinyl)phenyl-4H-pyran-4-one]
Second: O=c1cc(-c2ccc(N3CCCC3)cc2)oc(N2CCOCC2)c1 [Compound 23, 2-(4-Morpholinyl)-6-4-(1-pyrrolidinyl)phenyl-4H-pyran-4-one]
The inhibition at 10 µg/mL of the first is lower: 10% for the first, 20% for the second.

Compared with `O=c1cc(-c2ccccc2OCc2ccccc2)oc(N2CCOCC2)c1` [Compound 9, 2-(4-Morpholinyl)-6-(2-(phenylmethoxy)phenyl)-4H-pyran-4-one], `O=c1cc(-c2ccc(OCc3cccnc3)cc2)oc(N2CCOCC2)c1` [Compound 5, 2-(4-Morpholinyl)-6-(4-(3-pyridinylmethoxy)phenyl)-4H-pyran-4-one] is lower in inhibition at 10 µg/mL: 60% for the first, 40% for the second.

Going from `CN1CCN(Cc2ccc(-c3cc(=O)cc(N4CCOCC4)o3)cc2)CC1` [Compound 20, 2-(4-((4-methyl-1-piperazinyl)methyl)phenyl)-6-(4-morpholinyl)-4H-pyran-4-one] to `O=c1cc(-c2ccc(OCc3ccc4ccccc4n3)cc2)oc(N2CCOCC2)c1` [Compound 8, 2-(4-Morpholinyl)-6-(4-(2-quinolinylmethoxy)phenyl)-4H-pyran-4-one], the inhibition at 10 µg/mL rises from 0% to 35%.

Same assay, conditions: read-out: Inhibition of Platelet Aggregation 30 ug/ml

Going from `O=c1cc(-c2ccc(CO)cc2)oc(N2CCOCC2)c1` [Compound 17, 2-(4-(hydroxymethyl)phenyl)-6-(4-morpholinyl)-4H-pyran-4-one] to `O=c1cc(-c2ccc(CN3CCCC3)cc2)oc(N2CCOCC2)c1` [Compound 19, 2-(4-morpholinyl)-6-(4-(1-pyrrolidinylmethyl)phenyl)-4H-pyran-4-one], the inhibition at 30 µg/mL rises from 0% to 10%.

`O=c1cc(CN2CCCCC2)oc(-c2ccc(OCc3ccccc3)cc2)c1` [Compound 13] and `O=c1cc(CN2CCOCC2)oc(-c2ccc(OCc3ccccc3)cc2)c1` [Compound 12] are the same in inhibition at 30 µg/mL: 0% for the first, 0% for the second.

Going from `O=c1cc(-c2ccc(CN3CCCCC3CO)cc2)oc(N2CCOCC2)c1` (centres unmarked) [Compound 21, 2-(4-((2-(hydroxymethyl)-1-piperidinyl)methyl)phenyl)-6-(4-morpholinyl)-4H-pyran-4-one] to `O=c1cc(-c2ccc(CN3CCCCC3)cc2)oc(N2CCOCC2)c1` [Compound 18, 2-(4-morpholinyl)-6-(4-(1-piperidinylmethyl)phenyl)-4H-pyran-4-one], the inhibition at 30 µg/mL rises from 10% to 18%.

`O=c1cc(-c2ccc(N3CCCCC3)cc2)oc(N2CCOCC2)c1` [Compound 24, 2-(4-Morpholinyl)-6-4-(1-piperidinyl)phenyl-4H-pyran-4-one] and `O=c1cc(-c2ccc(N3CCCC3)cc2)oc(N2CCOCC2)c1` [Compound 23, 2-(4-Morpholinyl)-6-4-(1-pyrrolidinyl)phenyl-4H-pyran-4-one] are the same in inhibition at 30 µg/mL: 50% for the first, 50% for the second.

Compared with `O=c1cc(-c2ccccc2OCc2ccccc2)oc(N2CCOCC2)c1` [Compound 9, 2-(4-Morpholinyl)-6-(2-(phenylmethoxy)phenyl)-4H-pyran-4-one], `O=c1cc(-c2ccc(OCc3cccnc3)cc2)oc(N2CCOCC2)c1` [Compound 5, 2-(4-Morpholinyl)-6-(4-(3-pyridinylmethoxy)phenyl)-4H-pyran-4-one] is lower in inhibition at 30 µg/mL: 65% for the first, 55% for the second.

Going from `CN1CCN(Cc2ccc(-c3cc(=O)cc(N4CCOCC4)o3)cc2)CC1` [Compound 20, 2-(4-((4-methyl-1-piperazinyl)methyl)phenyl)-6-(4-morpholinyl)-4H-pyran-4-one] to `O=c1cc(-c2ccc(OCc3ccc4ccccc4n3)cc2)oc(N2CCOCC2)c1` [Compound 8, 2-(4-Morpholinyl)-6-(4-(2-quinolinylmethoxy)phenyl)-4H-pyran-4-one], the inhibition at 30 µg/mL rises from 20% to 35%.

Reference: patent EP0489877B1, “ANTIATHEROSCLEROTIC AND ANTITHROMBOTIC 2-AMINO-6-PHENYL-4H-PYRAN-4-ONES” (THE UPJOHN COMPANY, priority 1990, dated 1992)
